From patent publication US12215123B2, “Cordycepin-based derivatized compound with anti-tumor effect” (NANJING TECH UNIVERSITY, priority 2022, dated 2025)
Where a name gives a salt, the structure may show the parent alone. Read-outs that look alike come from different tables or passages of the source.

Columns and labels:
[1] = system: small cell lung cancer cell line H69; assay: MTT proliferation, small cell lung cancer cell line H69; assay type: cell-based; conditions: read-out: IC50 (μM) of compounds in small cell lung cancer cells, H69
Experimental: (§1) The method for determining inhibitory activities of the compounds on the proliferation of tumor cells by an MTT method is as follows: a bottle of cells in a good state in an exponential growth phase is added with 0.25% trypsin digestive juice, the digestion makes adherent cells fall off, with 2 to 4×10^4 cells/mL, and a cell suspension is prepared. The cell suspension is inoculated on a 96-well plate, with 90 μL/well, and cultured in a constant-temperature CO2 incubator for 24 hours. The prepared compounds are added for testing, with 10 μL/well, and cultured for 72 hours. An MTT reagent is added into a 96-well plate, with 10 μL/well, and reacts in an incubator for 4 hours to absorb a supernatant, and then dimethyl sulfoxide is added, with 100 μL/well. After a crystal is dissolved, an absorbance of each well at a wavelength of 570 nm is measured by an enzyme-linked immunosorbent assay instrument, and a cell inhibition rate is calculated. An S curve is made with a compound concentration and a corresponding inhibition rate. Therefore, IC50 of a corresponding compound is obtained.
(§2) Anti-tumor dose-effect relationship curves of cordycepin and compounds 1, 2, 4, 5, 7, 8, 10, 12, 16, 18, 21, 23, 24, 35 and 38 in small cell lung cancer cell lines H1048, H446 and H69 were analyzed by an MTT experimental method.

[2] = system: small cell lung cancer cell line H1048; assay: MTT proliferation, small cell lung cancer cell line H1048; assay type: cell-based; conditions: read-out: IC50 (μM) of compounds in small cell lung cancer cells, H1048
Experimental: as §1, §2

[3] = system: gastric cancer cell line AGS; assay: MTT proliferation, gastric cancer cell line AGS; assay type: cell-based; conditions: read-out: IC50 (μM) in gastric cancer cells, AGS
Experimental: as §1
(§3) Anti-tumor dose-effect relationship curves of the cordycepin and 40 compounds prepared in gastric cancer cell lines AGS and BGC-823 were analyzed by an MTT experimental method.

[4] = system: gastric cancer cell line BGC-823; assay: MTT proliferation, gastric cancer cell line BGC-823; assay type: cell-based; conditions: read-out: IC50 (μM) in gastric cancer cells, BGC-823
Experimental: as §1, §3

[5] = system: small cell lung cancer cell line H446; assay: MTT proliferation, small cell lung cancer cell line H446; assay type: cell-based; conditions: for IC50: read-out: IC50 (μM) of compounds in small cell lung cancer cells, H446; for killing effect on the three lines of cells in vitro: stated in words for all three lines H1048, H446 and H69
Experimental: as §1, §2

[6] = system: wild-type AB-line zebrafish; conditions: 3 dpf to 5 dpf, 35° C.; survival rate>90% and teratogenicity<20%
Experimental: The zebrafish model is a wild-type AB-line zebrafish from College of Biotechnology and Pharmaceutical Engineering, Nanjing Tech University, and is carried out by a natural mating reproduction method, with 30 zebrafish of 2 dpf in each experimental group. The zebrafish is fed in fish culture water at 28° C. (water quality:200 mg of instant sea salt and CaCO3 are added into 1 L of reverse osmosis water with a conductivity of 480 uS/cm to 510 uS/cm, a pH value of 6.9 to 7.2, and a hardness of 53.7 mg/L to 71.6 mg/L), and the feeding management meets the requirements of international AAALAC certification.
240 3 dpf wild-type AB-line zebrafish were randomly selected in an 8-well plate, with 30 zebrafish in each well, and 3 mL of fish culture water in each well, the cordycepin was diluted according to a maximum lethal dose, dissolved in DMSO, and added into each well according to a concentration gradient (the maximum lethal dose was diluted by 100 times, in which 8 concentration gradient values were taken for the experiment), and meanwhile, a normal control group, a solvent control group G (5% glucose) and a solvent control group D (DMSO) were set. During the experiment, the zebrafish in each group were cultured at 35° C., after the zebrafish were treated to be 5 dpf with a sample to be tested, lethal and developmental malformation conditions of the zebrafish in different doses were investigated respectively, and a maximum tolerance dose (MTD) of the sample to be tested to normal zebrafish was determined under a concentration when survival rate>90% and teratogenicity<20%.

[7] = Homo sapiens, NCI-H1048, 72 h, MTT, 72 hours, H1048
[8] = Homo sapiens, MTT, 72 hours, BGC-823
[9] = Homo sapiens, NCI-H446, 72 h, MTT, 72 hours, H446

Row | Molecule | IC50 ([1]; MTT, 72 hours, H69) [µM] | IC50 ([3]; MTT, 72 hours, AGS) [µM] | Maximum tolerance dose (MTD) in zebrafish model [6] [µM] | IC50 [4, 8] [µM] | other results
1 | Nc1ncnc2c1ncn2[C@@H]1O[C@H](COCCO)CC1O (stereo partly drawn) [Compound 1] | 20.6 | 81.7 |  |  | IC50 ([2]; MTT, 72 hours, H1048): 27.4 µM; IC50 ([4]; MTT, 72 hours, BGC-823): 64.4 µM; IC50 ([5]; MTT, 72 hours, H446): 23.8 µM
2 | Nc1ncnc2c1ncn2[C@@H]1O[C@H](COP(=O)(O)O)CC1O (stereo partly drawn) [Compound 2, (5-(6-amino-9H-purine-9-yl)-4-hydroxytetrahydrofuran-2-yl)dihydromethyl phosphate] | 50.2 | 142 | 845 | 209 | IC50 [2, 7]: 55.3 µM; IC50 [5, 9]: 76.8 µM
3 | CC(C)COP(=O)(OCC(C)C)OC[C@@H]1CC(O)[C@H](n2cnc3c(N)ncnc32)O1 (stereo partly drawn) [Compound 4, (5-(6-amino-9H-purine-9-yl)-4-hydroxytetrahydrofuran-2-yl)diisobutyl methylphosphate] | 43.2 | 64.3 |  | 86.2 | IC50 [2, 7]: 42.1 µM; IC50 [5, 9]: 54.3 µM
4 | CC(C)C(=O)OCOP(=O)(COC[C@@H]1CC(O)[C@H](n2cnc3c(N)ncnc32)O1)OCOC(=O)C(C)C (stereo partly drawn) [Compound 5] | 53.4 | 72.7 | 525 | 91.5 | IC50 [2, 7]: 40.9 µM; IC50 [5, 9]: 43.3 µM
5 | COC(=O)C(NP(=O)(OC[C@@H]1CC(O)[C@H](n2cnc3c(N)ncnc32)O1)Oc1ccccc1)C(C)C (stereo partly drawn) [Compound 6] |  | 66.8 | 384 | 73.2 | 
6 | CC(C)OC(=O)C(C)NP(=O)(COC[C@@H]1CC(O)[C@H](n2cnc3c(N)ncnc32)O1)Oc1ccccc1 (stereo partly drawn) [Compound 7] |  |  | 62 |  | IC50 ([1]; 72 h): 9.59 µM; IC50 ([2]; Homo sapiens, NCI-H1048, 72 h): 12.1 µM; IC50 ([3]; 72 h): 2.46 µM; IC50 ([4]; Homo sapiens, BGC-823, 72 h): 1.61 µM; IC50 ([5]; Homo sapiens, NCI-H446, 72 h): 20.5 µM
7 | CC(C)[C@H](N)C(=O)OCC(CO)OCC1CC(O)C(n2cnc3c(N)ncnc32)O1 (stereo partly drawn) [Compound 8, 2-(-5-(6-amino-9H-purin-9-yl)-4-hydroxytetrahydrofuran-2-yl)methoxy)-3-hydroxypropyl valine salt] | 14.8 | 27.8 |  |  | IC50 ([2]; MTT, 72 hours, H1048): 14.5 µM; IC50 ([4]; MTT, 72 hours, BGC-823): 18.8 µM; IC50 ([5]; MTT, 72 hours, H446): 10.5 µM
8 | NC1=CS(=O)(=O)OC12C[C@@H](COP(=O)(O)O)O[C@H]2n1cnc2c(N)ncnc21 (stereo partly drawn) [Compound 9, (4-amino-6-(6-amino-9H-purin-9-yl)-2,2-dioxide-1,7-dioxane-2-thiaspiro[4.4]non-3-ene-8-yl)dihydromethyl phosphate] |  | 0.46 | 14 | 1.24 | 
9 | O=C(Nc1ncnc2c1ncn2[C@@H]1O[C@H](CO)CC1O)C1CCCC1 (stereo partly drawn) [Compound 11] |  | 13 | 75 | 10.3 | 
10 | O=C(Nc1ncnc2c1ncn2[C@@H]1O[C@H](CO)CC1O)c1ccncc1 (stereo partly drawn) [Compound 12] | 19.5 | 1.23 |  | 1.34 | IC50 [2, 7]: 22.2 µM; IC50 [5, 9]: 18.1 µM
11 | Nc1nc(F)nc2c1ncn2[C@@H]1O[C@H](COP(=O)(O)O)CC1O (stereo partly drawn) [Compound 13, (5-(6-amino-2-fluoro-9H-purine-9-yl)-4-hydroxytetrahydrofuran-2-yl)dihydromethyl phosphate] |  | 32.5 | 0.05 | 36.8 | 
12 | CC(C)OC(=O)C(C)NP(=O)(COC[C@@H]1CC(O)[C@H](n2cnc3c(N)nc(F)nc32)O1)Oc1ccccc1 (stereo partly drawn) [Compound 20, isopropyl((((5-(6-amino-2-fluoro-9H-purin-9-yl)-4-hydroxytetrahydrofuran-2-yl)methoxy)methyl)(phenoxy)phosphoryl)alanine ester] |  |  | 0.12 |  | IC50 ([3]; 72 h): 0.94 µM; IC50 ([4]; Homo sapiens, BGC-823, 72 h): 1.37 µM
13 | CC(C)(C)C(=O)OCOP(=O)(COC[C@@H]1CC(O)[C@H](n2cnc3c(NC(=O)c4ccncc4)ncnc32)O1)OCOC(=O)C(C)(C)C (stereo partly drawn) [Compound 23] | 20.2 | 0.89 |  | 1.31 | IC50 [2, 7]: 17.4 µM; IC50 [5, 9]: 16.4 µM
14 | [N-]=[N+]=N[C@@H]1C(O)[C@H](n2cnc3c(N)ncnc32)O[C@@H]1COP(=O)(O)O (stereo partly drawn) [Compound 25, (5-(6-amino-9H-purine-9-yl)-3-azide-4-hydroxytetrahydrofuran-2-yl)dihydromethyl phosphate] |  | 47.6 | 12 | 58.5 | 
15 | Nc1nc(F)nc2c1ncn2C1OC(COC2CC(CO)C(O)C2O)CC1O (stereo not drawn) [Compound 36, 3-((5-(6-amino-2-fluoro-9H-purin-9-yl)-4-hydroxytetrahydrofuran-2-yl)methoxy)-5-(hydroxymethyl)cyclopentane-1,2-diol] |  | 103 | 0.02 | 90.2 | 
16 | CC(C)(C)C(=O)OCOP(=O)(COC[C@]1(N=[N+]=[N-])CC(O)[C@H](n2cnc3c(N)ncnc32)O1)OCOC(=O)C(C)(C)C (stereo partly drawn) [Compound 37] |  | 64.2 | 0.17 | 56.1 | 
17 | Nc1nc(/C=C/Br)nc2c1ncn2[C@@H]1O[C@H](COP(=O)(O)O)CC1O (stereo partly drawn) [Compound 38, (5-(6-amino-2-((E)-2-bromocarbonyl)-9H-purine-9-yl)-4-hydroxytetrahydrofuran-2-yl)dihydromethyl phosphate] | 1.25 | 134 |  | 104 | IC50 [2, 7]: 1.37 µM; IC50 [5, 9]: 0.97 µM; killing effect on the three lines of cells in vitro ([5]; MTT): strong killing effect
18 | CC(C)Nc1nc2c(N)ncnc2n1[C@@H]1O[C@H](COP(=O)(O)O)CC1O (stereo partly drawn) [Compound 39, (5-(6-amino-8-(isopropylamino)-9H-purin-9-yl)-4-hydroxytetrahydrofuran-2-yl)dihydromethyl phosphate] |  | 187 | 28 | 167 | 
19 | (5-(2-((E)-2-bromocarbonyl)-6-(isonicotinamide)-9H-purin-9-yl)-4-hydroxytetrahydrofuran-2-yl)dihydromethyl phosphate [Compound 35] | 21.5 | 69.4 | 0.025 |  | IC50 ([2]; MTT, 72 hours, H1048): 32.6 µM; IC50 ([4]; MTT, 72 hours, BGC-823): 71 µM; IC50 ([5]; MTT, 72 hours, H446): 21.4 µM; killing effect on the three lines of cells in vitro ([5]; MTT): strong killing effect
20 | N-(2-fluoro-3-hydroxy-5-(hydroxymethyl)tetrahydrofuran-2-yl)-9H-purine-6-yl)octadecylamine [Compound 21] | 2.95 | 2.46 |  |  | IC50 ([2]; MTT, 72 hours, H1048): 6.38 µM; IC50 ([4]; MTT, 72 hours, BGC-823): 4.38 µM; IC50 ([5]; MTT, 72 hours, H446): 4.58 µM
21 | N-(3-hydroxy-5-(hydroxymethyl)tetrahydrofuran-2-yl)-9H-purine-6-yl)octadecylamine [Compound 10] | 9.48 | 136 |  |  | IC50 ([2]; MTT, 72 hours, H1048): 10.4 µM; IC50 ([4]; MTT, 72 hours, BGC-823): 82.4 µM; IC50 ([5]; MTT, 72 hours, H446): 12.1 µM
